Source: PMC8739956 (Frontiers in Oncology, 2021)
“Also recorded” adds a separate entry of the source. Where two headings read alike, the source gives them in different places. One block for each molecule: values may come before it.

Legend:
[1] = cited from earlier work
[2] = tested on: DLBCL; conditions: 14-d ibrutinib therapy before TEDDI-R; cited from earlier work
[3] = cited from earlier work; remark: listed apart in the source
[4] = parameters: method as in PMID 32583848; conditions: cited from earlier work; for Mean CSF (trough concentration): PCNSL patients
[5] = LC-MS/MS quantification of zanubrutinib in time-matched plasma and CSF samples of patients; format: in vivo, human; conditions: for concentration at 12 h: read-out: Trough CSF concentration
Description: Zanubrutinib is absorbed rapidly with a median time to maximum concentration of 2 h. Blood and CSF samples were collected at 2 or 3 h after the oral administration of zanubrutinib at 160 mg. Zanubrutinib administration was performed for more than 7 d. Additional plasma and CSF specimens for trough concentration testing were collected just before zanubrutinib administration (i.e., 12 h after the last zanubrutinib dose). Biological samples were stored at −20°C for a maximum of one month before analysis.
Zanubrutinib in CSF and sodium heparin plasma samples was quantified by LC-MS/MS. Zanubrutinib standard was obtained from Beigene (Beijing, China). Methanol, methanoic acid, and acetonitrile (high-performance liquid chromatography gradient grade) were purchased from Fisher Scientific, USA. Ultrapure water was obtained using a Milli-Q purification system (Millipore, MA, USA). Control plasma and CSF samples for standards and quality control were obtained from patients treated in the department of hematology of PUMCH. The detailed LC-MS/MS procedure is described in the Supplementary Material .
Zanubrutinib solutions were prepared at a concentration of 1 mg/ml in methanol and further diluted with methanol to obtain working solutions at concentrations of 100–1,000,000 pg/ml. Biological samples (50 µl) were mixed with 10 µl of methanol and 100 µl of acetonitrile. The mixed samples were centrifuged at 2,500 rpm for 3 min at room temperature and at 17,500 rpm for 10 min at 2°C–8°C. The supernatant (120 μl) was then injected into the chromatography system at room temperature.
The analytes were analyzed by reverse-phase chromatography using an UPLC XevoTQ-XS system (Waters Corp., Milford, MA, USA) equipped with an ACQUUITY UPLC®BEH C18 column (2.1×50 mm, 1.7 μm; Waters Corp.). The mobile phase consisted of 0.1% formic acid in acetonitrile and ultrapure water. A mass spectrometer was used in positive mode with an electrospray ionization source. Multiple reaction monitoring mode was used to detect analytes and internal standards.
To create a stock solution of zanubrutinib with a concentration of 1 mg/ml, zanubrutinib (4.55 mg) was added to methanol (4.55 ml). The standard working solution and quality control standard solution of zanubrutinib were then obtained by diluting the stock solution to 1 μg/ml with methanol. To establish the standard curve, the blank control samples of plasma and CSF were added into 50-μl EP tubes followed by the addition of 10 μl standard working solution with different concentrations (see the table below).
The concentrations of analytes in CSF and plasma samples were obtained from the calibration curve constructed by plotting the peak area ratio of each analyte to the internal standard against the concentration. The analyte concentrations in the samples were calculated by linear regression.

[6] = tested on: diffuse large B-cell lymphoma (DLBCL); test: Clinical response of DLBCL patients (Lugano 2014 / 2005 IELSG criteria); format: in vivo, human; conditions: for MRI lesion in the cerebellum: case 5, zanubrutinib monotherapy
Description: Patients with treatment-naive and relapsed/refractory DLBCL were enrolled in this study. […] The exclusion criteria were as follows: severe disease complications or serious comorbidities; active infection; uncontrolled bleeding events; and pregnancy or lactation in women.
The dose of zanubrutinib was fixed at 160 mg twice per day in all patients. Treatment duration and the combined drugs/regimens were decided by the clinicians.
Four regimens were evaluated in this study: Regimen 1, zanubrutinib + rituximab in primary vitreoretinal lymphoma (PVRL) (zanubrutinib at 160 mg twice per day until disease progression or intolerance and rituximab at 375 mg/m^2 every 21 days); Regimen 2, zanubrutinib combined with high-dose methotrexate with or without cytarabine (HD-MTX regimen/MA regimen) in CNSL (methotrexate at 3.5–5.0 g/m^2 d1 and cytarabine at […] every 12 h on d2 and d3, every 21 days per cycle); Regimen 3, zanubrutinib combined with dexamethasone, ifosfamide, carboplatin, and etoposide (DICE) or dexamethasone, cytarabine, and cis-platinum (DHAP) in relapsed and refractory patients every 21 days per cycle as prescribed for the salvage chemotherapy of autologous stem cell transplantation (ASCT); and Regimen 4, zanubrutinib combined with rituximab, cyclophosphamide, epirubicin, vindesine, and prednisone (R-CHOP) for eight cycles as an initial treatment in IVLBCL.
The clinical response was assessed based on the Lugano 2014 Criteria for DBLCL and 2005 IELSG Criteria for PCNSL ([24], [25]). AEs were recorded and assessed according to the Common Terminology Criteria for Adverse Events (CTCAE) v4.0.
Continuous variables were expressed as median and range and compared by Mann–Whitney U-test. Categorical variables were reported as percentages and compared by chi-squared test. The duration of response (DOR) was determined using the Kaplan–Meier method. Statistical analyses were performed with SPSS 25.0 (IBM, NY, USA) or Prism 7.0 (GraphPad, CA, USA). P < 0.05 was considered statistically significant.

[7] = tested on: IL-10; test: CSF IL-10 concentration during treatment; format: in vivo, human; conditions: case 6, zanubrutinib monotherapy for 7 d
[8] = tested on: TMD8; conditions: ABC DLBCL lines in vitro (TMD8); cited from earlier work
[9] = parameters: method as in package insert; conditions: ref package insert, cited from earlier work
[10] = tested on: DLBCL; conditions: cited from earlier work
[11] = tested on: CNSL; conditions: high risk group, prophylaxis; cited from earlier work
[12] = relapsed non-GCB DLBCL, phase 2, 41 patients

Structure (SMILES): C=CC(=O)N1CCC[C@@H](n2nc(-c3ccc(Oc4ccccc4)cc3)c3c(N)ncnc32)C1 [Ibrutinib, ibrutinib]
Protein binding ([1]; ibrutinib): 97.3%
Patients with disease improvement after monotherapy [2]: 94%
Mean Plasma ([3]; 560mg qd): 53.7 ng/mL
Mean Plasma ([3]; 700mg qd): 217.4 ng/mL
Mean Plasma ([3]; 840mg qd): 875.6 ng/mL

Structure (SMILES): CC#CC(=O)N1CC[C@@H](n2c(=O)n(-c3ccc(Oc4ccccc4)cc3)c3c(N)ncnc32)C1 [Tirabrutinib]
Mean CSF (trough concentration) ([4]; 320mg qd): 2.19 ng/mL
Mean CSF (trough concentration) ([4]; 320mg qd, listed as tirabrutinib): 2.19 ± 0.476 ng/mL
Mean Plasma ([4]; 320mg qd): 16.3 ng/mL
Mean CSF (trough concentration) ([4]; 480mg qd): 14.0 ng/mL
Mean CSF (trough concentration) ([4]; 480mg qd, listed as tirabrutinib): 14.0 ± 8.92 ng/mL
Mean Plasma ([4]; 480mg qd): 77.0 ng/mL

Mean CSF ([5]; 160mg bid): 2.94 ng/mL
Mean Plasma ([5]; 160mg bid): 143.2 ng/mL
Samples with peak CSF concentration above the IC50 values ([5]; 22/23 samples): 95.7%
Corrected CSF/plasma ratio ([5]; corrected for 94% protein binding, entire series, 23 samples): 42.7 ± 27.7%
Corrected CSF/plasma ratio ([5]; corrected for 94% protein binding, entire series, 23 samples, listed as zanubrutinib): 42.7% ± 27.7%
Mean plasma concentration ([5]; entire series, 23 samples, peak time point 2-3 h after 160 mg oral, 160 mg twice per day): 143.1906 ± 93.3027 ng/mL
concentration at 2 h ([5]; human, CSF, oral, 160 mg, 2 h after administration, 10 samples, read-out: Mean CSF concentration): 4.12 ± 2.86 ng/mL
concentration at 3 h ([5]; human, CSF, oral, 160 mg, 3 h after administration, 13 samples, read-out: Mean CSF concentration): 2.43 ± 2.03 ng/mL
concentration at 12 h ([5]; human, CSF, oral, 160 mg, case 1, 12 h after the last dose): 0.267 ng/mL
concentration at 12 h ([5]; human, CSF, oral, 160 mg, case 3, 12 h after the last dose): 5.02 ng/mL
Kp at 2 h ([5]; human, CSF/plasma, oral, 160 mg, 2 h after administration, 10 samples, read-out: Corrected CSF/plasma ratio): 0.412 ± 0.325
Kp at 3 h ([5]; human, CSF/plasma, oral, 160 mg, 3 h after administration, 13 samples, read-out: Corrected CSF/plasma ratio): 0.433 ± 0.265
Kp ([5]; human, CSF/plasma, oral, 160 mg, corrected for 94% protein binding, entire series, 23 samples, read-out: Corrected CSF/plasma ratio): ~0.4
Kp ([5]; human, CSF/plasma, oral, 160 mg, corrected for 94% protein binding, entire series, read-out: Corrected CSF/plasma ratio, range): 0.086 to 1.06
Kp ([5]; human, CSF/plasma, oral, 160 mg, not corrected for protein binding, read-out: CSF/plasma ratio): ~0.02
Kp ([5]; human, CSF/plasma, oral, 160 mg, not corrected for protein binding, read-out: CSF/plasma ratio, range): 0.0061 to 0.0583
Kp ([5]; human, CSF/plasma, oral, 160 mg, six patients with repeated samples in different cycles, read-out: CSF/plasma ratio, range among patients): 0.105 to 0.781
concentration at 2 h ([5]; human, plasma, oral, 160 mg, 2 h after administration, 10 samples, read-out: Mean plasma concentration): 183 ± 91.1 ng/mL
concentration at 3 h ([5]; human, plasma, oral, 160 mg, 3 h after administration, 13 samples, read-out: Mean plasma concentration): 126 ± 91.6 ng/mL
Structure (SMILES): C=CC(=O)N1CCC([C@@H]2CCNc3c(C(N)=O)c(-c4ccc(Oc5ccccc5)cc4)nn32)CC1 [Zanubrutinib]
MRI lesion in the cerebellum [6]: shrank and disappeared within three weeks
MRI lesion in the cerebellum ([6]; listed as zanubrutinib): the mass shrank and disappeared
Response to monotherapy as lead-in therapy ([6]; two relapsed PCNSL cases, monotherapy before combination chemotherapy): rapid and dramatic response; also recorded: significant disease control within 14 d
CSF IL-10 concentration [7]: dramatically decreased
IC50 [8]: 0.4 nM
Protein binding rate ([1]; zanubrutinib, no reference given): 94%
Median time to maximum concentration [9]: 2 h
Median time to maximum concentration ([9]; listed as zanubrutinib): approximately 2 h
Patients who achieved remission ([10]; among 75 patients with non-Hodgkin lymphoma (including 23 with DLBCL)): 14
ORR ([10]; relapsed non-GCB DLBCL, phase 2, 41 patients, median follow-up 6.8 months): 29.3%
AEs leading to treatment discontinuation, patients [10, 12]: four
Complete response rate [10, 12]: 17.1%

Structure (SMILES): CN(Cc1cnc2nc(N)nc(N)c2n1)c1ccc(C(=O)N[C@@H](CCC(=O)O)C(=O)O)cc1 [high-dose MTX, methotrexate]
CNS relapsing rate [11]: > 10%
